Assay results taken from patent US20250214969A1, “PROTEIN DEGRADERS AND USES THEREOF” (Kymera Therapeutics, Inc., priority 2022, published 2025).

Key:
[1] = target: T1, truncated His-MBP-Tev-KLHDC2 (residues 1-363) (Homo sapiens, UniProt Q9Y2U9); assay: KLHDC2 HTRF binding assay; conditions: 1 nM KLHDC2 (residues 1-363), fluorescein-labeled diglycine peptide probe
T1 construct: truncated His -MBP-Tev-KLHDC2 (residues 1-363) purified from E. coli; made in house; host or cells: E. coli
T1 sequence (Q9Y2U9 1-363): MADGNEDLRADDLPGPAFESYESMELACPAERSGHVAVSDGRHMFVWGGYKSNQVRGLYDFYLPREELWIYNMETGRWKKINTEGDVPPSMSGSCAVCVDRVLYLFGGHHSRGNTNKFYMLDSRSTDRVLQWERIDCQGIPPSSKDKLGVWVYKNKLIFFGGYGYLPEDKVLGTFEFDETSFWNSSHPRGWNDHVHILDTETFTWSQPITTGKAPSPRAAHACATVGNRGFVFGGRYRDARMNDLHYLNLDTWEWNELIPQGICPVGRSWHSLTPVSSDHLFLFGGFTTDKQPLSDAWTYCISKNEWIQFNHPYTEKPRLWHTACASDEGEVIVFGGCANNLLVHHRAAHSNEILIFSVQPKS

[2] = target: T1, truncated His-MBP-Tev-KLHDC2 (residues 1-363); assay: KLHDC2 FP competition binding assay; conditions: 15 nM KLHDC2 (residues 1-363), 10 nM fluorescein-labeled diglycine peptide probe, read-out: KLHDC2 binding Human FP: average external IC50

| Compound | IC50 [1] [µM] | IC50 [2] [µM] |
| --- | --- | --- |
| COc1ccc(-c2cc(C)ccc2C)cc1CC(=O)O [I-354] | > 5 | > 5 |
| O=C(O)Cn1cc(-c2cccc3[nH]ccc23)ccc1=O [I-339] | > 5 | > 5 |
| COc1ccc(-c2ccc(=O)n(CC(=O)O)c2)cn1 [I-327] | > 5 | > 5 |
| O=C(O)Cn1cc(C(F)(F)F)ccc1=O [I-429] | > 5 | > 5 |
| O=C(O)CN1CC(NC(=O)c2cccc(-c3ccccc3)c2)CCC1=O (stereo not drawn) [I-206] | > 5 | > 5 |
| Cc1sc2c(c1C)C(c1ccc(Cl)cc1)=N[C@@H](CC(=O)NCCCCCCn1ccc3c(C(=O)Nc4ccc(=O)n(CC(=O)O)c4)cccc31)c1nnc(C)n1-2 [I-474] | < 0.05 | < 0.05 |
| O=C(O)Cn1cc(NC(=O)c2cc(-c3cccnc3)ccn2)ccc1=O [I-142] | 0.05 to 0.5 | 0.5 to 5 |
| Cn1ccc2c(-c3ccc(=O)n(CC(=O)O)c3)cccc21 [I-333] | > 5 | > 5 |
| COc1cc2ccccc2cc1C(=O)Nc1ccc(=O)n(CC(=O)O)c1 [I-320] | > 5 | > 5 |
| CC(C)Cn1ccc2c(C(=O)Nc3ccc(=O)n(CC(=O)O)c3)cccc21 [I-238] | 0.05 to 0.5 | > 5 |
| O=C(O)Cn1cc(N2CCc3cc(-c4cccnc4)ccc3C2=O)ccc1=O [I-68] | 0.5 to 5 | > 5 |
| O=C(O)Cn1cc(-c2ccc3[nH]ncc3c2)ccc1=O [I-387] | > 5 | > 5 |
| O=C(O)Cn1cc(NC(=O)COc2cccnc2)ccc1=O [I-250] | > 5 | > 5 |
| COc1ncc(-c2ccc(=O)n(CC(=O)O)c2)cc1F [I-365] | > 5 | > 5 |
| Cc1ccc(C(=O)Nc2ccc(=O)n(CC(=O)O)c2)cc1-c1cccnc1 [I-202] | 0.05 to 0.5 | 0.5 to 5 |
| O=C(O)Cn1cc(NC(=O)[C@@H]2CCCN(c3cccnc3)CC2)ccc1=O [I-29] | 0.5 to 5 | > 5 |
| CS(=O)(=O)c1cccc(-c2cccc(C(=O)Nc3ccc(=O)n(CC(=O)O)c3)c2)c1 [I-194] | > 5 | > 5 |

| Compound | IC50 [1] [µM] | IC50 [2] [µM] |
| --- | --- | --- |
| O=C(O)Cn1cc(NC(=O)COc2cccc(Cl)c2)ccc1=O [I-265] | > 5 | > 5 |
| O=C(O)Cn1cc(-c2ccc(N3CCOCC3)cc2)ccc1=O [I-312] | > 5 | > 5 |
| CC(C)(C)OC(=O)NCCCCCCc1ccncc1-c1cccc(C(=O)Nc2ccc(=O)n(CC(=O)O)c2)c1 [I-164] | 0.05 to 0.5 | 0.5 to 5 |
| O=C(O)Cn1cc(N2C[C@]3(CCCN(c4cccnc4)C3)CC2=O)ccc1=O [I-16] | > 5 | > 5 |
| O=C(O)Cn1cc(-c2ccccc2F)ccc1=O [I-395] | > 5 | > 5 |
| O=C(O)Cc1cc(NC(=O)c2cccc(-c3cccnc3)c2)ccc1F [I-55] | 0.5 to 5 | > 5 |
| O=C(O)Cn1cc(-c2ccc(N3CCCC3)nc2)ccc1=O [I-380] | > 5 | > 5 |
| NC(=O)Cn1cc(NC(=O)c2cccc(-c3cccnc3)c2)ccc1=O [I-123] | > 5 | > 5 |
| O=C(O)Cn1cc(NC(=O)c2ccc(-c3ccccc3)cc2F)ccc1=O [I-161] | 0.5 to 5 | 0.5 to 5 |
| O=C(O)Cn1cc(NC(=O)[C@H]2CCN(c3cccnc3)C2)ccc1=O [I-48] | 0.5 to 5 | > 5 |
| O=C(O)Cn1cc(NC(=O)c2ccc(-c3ccccc3)c(Cl)c2)ccc1=O [I-185] | 0.5 to 5 | > 5 |
| O=C(O)Cn1cc(NC(=O)COc2ccc(Oc3ccccc3)cc2)ccc1=O [I-244] | > 5 | > 5 |
| NC(=O)Cc1ccc(-c2ccc(=O)n(CC(=O)O)c2)cc1 [I-313] | > 5 | > 5 |
| Cc1ccc(F)c(-c2ccc(=O)n(CC(=O)O)c2)c1 [I-343] | > 5 | > 5 |
| O=C(O)Cn1cc(-c2ccccc2C(F)(F)F)ccc1=O [I-369] | > 5 | > 5 |
| CCOC(=O)Cn1cc(NC(=O)c2ccc(CCCCCCNC(=O)OC(C)(C)C)c(-c3cccnc3)c2)ccc1=O [I-150] | > 5 | > 5 |
